Patent EP1184367A1, “AMIDE DERIVATIVES” (Sumitomo Pharmaceuticals Company, Limited, priority 1999, dated 2000)
Read-outs that look alike come from different tables or passages of the source.

System: constant white light-induced retinal damage
Description: Male Wistar rats (7 weeks old, Charles River Japan Inc.) were purchased and maintained in cyclic light / dark environment (8:00-20:00 / light term) for one week, and then placed within the apparatus for constant white light exposure for two days. The constant white light exposure apparatus is a covered breeding box of 1020 mm in length, 425 mm in width, 520 mm in height, which is made of acryl boards and of which all inner side are covered with mirrors. Light was continuously irradiated all the day long (24 hours) using white fluorescent lamp attached to the ceiling of the apparatus. The average illuminance in the apparatus was 174.2 foot candle. After two days in the apparatus, the rats were moved to a darkroom and dark adapted for 1-4 hours. The rats were anesthetized with pentobarbital and placed in a stereotaxic frame. After topical mydriatica was given and electrodes were put on corneal surface, center of the forehead and the lower part of the lobe, the response in active potential of retina to the flash stimulation with fixed energy was determined from the recorded ERG (electroretinogram). The damage of retina was evaluated by the decrease in the amplitude of ERG a-wave which originated from retinal outer nuclear cells (photoreceptors). […]

Row | Structure (SMILES) | % recovery (Mean±S.E.M.) (rat, in vivo, po, 100 mg/kg) [%] | % recovery (Mean±S.E.M.) (rats, 100 mg/kg orally administered in 0.5 % methylcellulose, just before constant light exposure and at the same time on the next day, two days of exposure, ERG a-wave amplitude relative to normal control and MC groups, five rats in a group) [%]
1 | CC(C)(COC(=O)CCC(=O)O)NC(=O)c1ccc(F)cc1F [Example 3, N-(2-(3-Carboxypropionyloxy)-1,1-dimethylethyl)-2,4-difluorobenzamide] | 14.0 ± 3.1 | 
2 | CC(C)(COC(=O)CN)NC(=O)c1ccc(F)cc1F.O=S(=O)(O)c1ccccc1 [Example 4, N-(2-Glycyloxy-1,1-dimethylethyl)-2,4-difluorobenzamide benzenesulfonate] |  | 19.5 ± 3.3
